According to patent publication US8106055B2, “Substituted amide compounds” (Gruenenthal GmbH, priority 2007, dated 2012):

target: T1, bradykinin 1 receptor (B1R) of the rat (Rattus norvegicus, UniProt P97583); test: Functional investigation on the rat bradykinin 1 receptor (B1R), Ca2+ FLIPR assay in CHO K1 rB1R cells; format: cell-based; details: B1R antagonism rat; test substance 10 μM; Ca2+ FLIPR, CHO K1 rB1R cells
T1 construct: expressed in transfected cells; host or cells: CHO K1 cells
T1 sequence (P97583 1-337): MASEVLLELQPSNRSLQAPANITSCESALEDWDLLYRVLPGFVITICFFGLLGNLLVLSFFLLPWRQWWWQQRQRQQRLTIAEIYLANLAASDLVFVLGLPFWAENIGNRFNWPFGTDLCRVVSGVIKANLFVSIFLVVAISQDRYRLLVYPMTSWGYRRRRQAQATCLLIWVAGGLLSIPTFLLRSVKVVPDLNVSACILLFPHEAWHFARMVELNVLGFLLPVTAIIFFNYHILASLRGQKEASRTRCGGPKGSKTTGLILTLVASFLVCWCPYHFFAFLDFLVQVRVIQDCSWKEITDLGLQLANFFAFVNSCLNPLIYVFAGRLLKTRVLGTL
Summary of the method: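 Peak Ca2+-dependent fluorescence in B1R-transfected CHO K1 cells measures antagonism of an EC80 agonist challenge given 10-20 min after compound. Agonist is Lys-Des-Arg9-bradykinin for human, Des-Arg9-bradykinin for rat receptor.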

Point of comparison: `COc1ccc(S(=O)(=O)N2CCCCC2COCC(=O)NCC2CCC(C(c3ccc(F)cc3)N(C)C)CC2)cc1OC` (single isomer, unassigned) [Example 537], “B1R Ant. r [10 μM] % Inhibition” value 8%. Against it:
- COc1ccc(S(=O)(=O)N2CCCCC2COCC(=O)NCC2CCC(C(c3ccc(F)cc3)N(C)C)CC2)cc1OC (single isomer, unassigned) [Example 534] — lower, −4%
- Cc1cc(C)c(S(=O)(=O)N(C)CCOCC(=O)NC2CCC(C(c3ccccc3)N(C)C)CC2)c(C)c1 (stereo not shown) [Example 63, N-(4-((dimethylamino)(phenyl)methyl)cyclohexyl)-2-(2-(N,2,4,6-tetramethylphenylsulfamido)ethoxy)acetamide] — the same, 8%

same assay, conditions: CHO-K1, B1R antagonism rat; test substance 10 μM; Ca2+ FLIPR, CHO K1 rB1R cells; read-out: B1R Ant. r [10 μM] % Inhibition

Point of comparison: `COc1ccc(S(=O)(=O)N2CCCCC2COCC(=O)NCCC2CCC(C(c3cccs3)N(C)C)CC2)c(OC)c1` (stereo not shown) [Example 107, 2-((1-(2,4-dimethoxyphenylsulfonyl)piperidin-2-yl)methoxy)-N-(2-(4-((dimethylamino)(thiophen-2-yl)methyl)cyclohexyl)ethyl)acetamide], inhibition at 10 µM 49%. Against it:
- COc1ccc(S(=O)(=O)N2CCCCC2CCOCC(=O)NC2CCC(C(c3cccs3)N(C)C)CC2)cc1 (stereo not shown) [Example 6, N-(4-((dimethylamino)(thiophen-2-yl)methyl)cyclohexyl)-2-(2-(1-(4-methoxyphenylsulfonyl)piperidin-2-yl)ethoxy)acetamide] — lower, 34%
- COc1ccc(S(=O)(=O)N2Cc3ccccc3CC2COCC(=O)NCC2CCC(C(c3cccs3)N(C)C)CC2)cc1 (stereo not shown) [Example 7, N-((4-((dimethylamino)(thiophen-2-yl)methyl)cyclohexyl)methyl)-2-((2-(4-methoxyphenylsulfonyl)-1,2,3,4-tetrahydroisoquinolin-3-yl)methoxy)acetamide] — lower, 27%
- CN(C)C(c1cccs1)C1CCC(CNC(=O)COCCN(C)S(=O)(=O)c2ccc(Cl)cc2Cl)CC1 (stereo not shown) [Example 8, 2-(2-(2,4-dichloro-N-methylphenylsulfonamido)ethoxy)-N-((4-((dimethylamino)(thiophen-2-yl)methyl)cyclohexyl)methyl)acetamide] — higher, 62%
- CN(C)C(c1cccs1)C1CCC(CCNC(=O)COC2CCN(S(=O)(=O)c3cccc(C(F)(F)F)c3)C2)CC1 (stereo not shown) [Example 96, N-(2-(4-((dimethylamino)(thiophen-2-yl)methyl)cyclohexyl)ethyl)-2-(1-(3-(trifluoromethyl)phenylsulfonyl)pyrrolidin-3-yloxy)acetamide] — lower, 26%
- CN(C)C(c1cccs1)C1CCC(CNC(=O)COC2CCN(S(=O)(=O)c3ccc(F)cc3)C2)CC1 (stereo not shown) [Example 97, N-((4-((dimethylamino)(thiophen-2-yl)methyl)cyclohexyl)methyl)-2-(1-(4-fluorophenylsulfonyl)pyrrolidin-3-yloxy)acetamide] — lower, 28%
- COc1cc(C)c(S(=O)(=O)N2CCC(OCC(=O)NC3CCC(C(c4cccs4)N(C)C)CC3)C2)c(C)c1 (stereo not shown) [Example 98, N-(4-((dimethylamino)(thiophen-2-yl)methyl)cyclohexyl)-2-(1-(4-methoxy-2,6-dimethylphenylsulfonyl)pyrrolidin-3-yloxy)acetamide] — higher, 69%
- CN(C)C(c1cccs1)C1CCC(CCNC(=O)COCCN2CCN(S(=O)(=O)c3ccccc3)CC2)CC1 (stereo not shown) [Example 99, N-(2-(4-((dimethylamino)(thiophen-2-yl)methyl)cyclohexyl)ethyl)-2-(2-(4-(phenylsulfonyl)piperazin-1-yl)ethoxy)acetamide] — lower, -8%
- CN(C)C(c1cccs1)C1CCC(CCNC(=O)COC2CCCN(S(=O)(=O)c3ccccc3)C2)CC1 (stereo not shown) [Example 100, N-(2-(4-((dimethylamino)(thiophen-2-yl)methyl)cyclohexyl)ethyl)-2-(1-(phenylsulfonyl)piperidin-3-yloxy)acetamide] — lower, 27%
- CN(C)C(c1cccs1)C1CCC(CNC(=O)COCC2CCCN(S(=O)(=O)c3ccccc3)C2)CC1 (stereo not shown) [Example 101, N-((4-((dimethylamino)(thiophen-2-yl)methyl)cyclohexyl)methyl)-2-((1-(phenylsulfonyl)piperidin-3-yl)methoxy)acetamide] — lower, 27%
- CN(C)C(c1cccs1)C1CCC(CNC(=O)COCCN(Cc2ccccc2)S(=O)(=O)c2ccccc2)CC1 (stereo not shown) [Example 102, 2-(2-(N-benzylphenylsulfonamido)ethoxy)-N-((4-((dimethylamino)(thiophen-2-yl)methyl)cyclohexyl)methyl)acetamide] — lower, -12%
- CCN(CCOCC(=O)NCCC1CCC(C(c2cccs2)N(C)C)CC1)S(=O)(=O)c1c(C)cc(OC)c(C)c1C (stereo not shown) [Example 103, N-(2-(4-((dimethylamino)(thiophen-2-yl)methyl)cyclohexyl)ethyl)-2-(2-(N-ethyl-4-methoxy-2,3,6-trimethylphenylsulfonamido)ethoxy)acetamide] — higher, 84%
- COc1cc(C)c(S(=O)(=O)N2CCC(OCC(=O)NCC3CCC(C(c4cccs4)N(C)C)CC3)CC2)c(C)c1C (stereo not shown) [Example 104, N-((4-((dimethylamino)(thiophen-2-yl)methyl)cyclohexyl)methyl)-2-(1-(4-methoxy-2,3,6-trimethylphenylsulfonyl)piperidin-4-yloxy)acetamide] — lower, -10%
- COc1ccc(S(=O)(=O)N2CCCC2COCC(=O)NCC2CCC(C(c3cccs3)N(C)C)CC2)cc1 (stereo not shown) [Example 105, N-((4-((dimethylamino)(thiophen-2-yl)methyl)cyclohexyl)methyl)-2-((1-(4-methoxyphenylsulfonyl)pyrrolidin-2-yl)methoxy)acetamide] — lower, 24%
- COc1ccc(S(=O)(=O)N2CCCCC2COCC(=O)NCC2CCC(C(c3ccccc3)N(C)C)CC2)c(OC)c1 (stereo not shown) [Example 106, 2-((1-(2,4-dimethoxyphenylsulfonyl)piperidin-2-yl)methoxy)-N-((4-((dimethylamino)(phenyl)methyl)cyclohexyl)methyl)acetamide] — lower, 13%
- CN(C)C(c1ccccc1)C1CCC(CNC(=O)COCCN(C)S(=O)(=O)c2ccc(Cl)cc2)CC1 (stereo not shown) [Example 110, 2-(2-(4-chloro-N-methylphenylsulfonamido)ethoxy)-N-((4-((dimethylamino) (phenyl)methyl)cyclohexyl)methyl)acetamide] — lower, 10%
- COc1cc(C)c(S(=O)(=O)N(C)CCOCC(=O)NC2CCC(C(c3cccs3)N(C)C)CC2)c(C)c1 (stereo not shown) [Example 111, N-(4-((dimethylamino)(thiophen-2-yl)methyl)cyclohexyl)-2-(2-(4-methoxy-N,2,6-trimethylphenylsulfonamido)ethoxy)acetamide] — higher, 104%
- CN(C)C(c1ccccc1)C1CCC(CNC(=O)COCCN(C)S(=O)(=O)c2ccc(F)cc2)CC1 (stereo not shown) [Example 112, N-((4-((dimethylamino)(phenyl)methyl)cyclohexyl)methyl)-2-(2-(4-fluoro-N-methylphenylsulfonamido)ethoxy)acetamide] — lower, 5%
- CN(C)C(c1ccccc1)C1CCC(CNC(=O)COC2CCN(S(=O)(=O)c3cccc(C(F)(F)F)c3)C2)CC1 (stereo not shown) [Example 113, N-((4-((dimethylamino)(phenyl)methyl)cyclohexyl)methyl)-2-(1-(3-(trifluoromethyl)phenylsulfonyl)pyrrolidin-3-yloxy)acetamide] — lower, 28%
- CN(C)C(c1ccccc1)C1CCC(CNC(=O)COC2CCCN(S(=O)(=O)c3ccccc3)C2)CC1 (stereo not shown) [Example 114, N-((4-((dimethylamino)(phenyl)methyl)cyclohexyl)methyl)-2-(1-(phenylsulfonyl)piperidin-3-yloxy)acetamide] — lower, 8%
- CN(C)C(c1cccs1)C1CCC(CCNC(=O)COCC2CCCN(S(=O)(=O)c3ccccc3)C2)CC1 (stereo not shown) [Example 115, N-(2-(4-((dimethylamino)(thiophen-2-yl)methyl)cyclohexyl)ethyl)-2-((1-(phenylsulfonyl)piperidin-3-yl)methoxy)acetamide] — lower, 21%
- CN(C)C(c1cccs1)C1CCC(CCNC(=O)COCCN(Cc2ccccc2)S(=O)(=O)c2ccccc2)CC1 (stereo not shown) [Example 116, 2-(2-(N-benzylphenylsulfonamido)ethoxy)-N-(2-(4-((dimethylamino)(thiophen-2-yl)methyl)cyclohexyl)ethyl)acetamide] — lower, 14%
- CCN(CCOCC(=O)NCC1CCC(C(c2cccc(F)c2)N(C)C)CC1)S(=O)(=O)c1c(C)cc(OC)c(C)c1C (stereo not shown) [Example 117, N-((4-((dimethylamino)(3-fluorophenyl)methyl)cyclohexyl)methyl)-2-(2-(N-ethyl-4-methoxy-2,3,6-trimethylphenylsulfonamido)ethoxy)acetamide] — higher, 77%
- COc1cc(C)c(S(=O)(=O)N2CCC(CCOCC(=O)NC3CCC(C(c4cccc(F)c4)N(C)C)CC3)CC2)c(C)c1C (stereo not shown) [Example 118, N-(4-((dimethylamino)(3-fluorophenyl)methyl)cyclohexyl)-2-(2-(1-(4-methoxy-2,3,6-trimethylphenylsulfonyl)piperidin-4-yl)ethoxy)acetamide] — lower, -4%
- CN(C)C(c1cccc(F)c1)C1CCC(CNC(=O)COCC2CCCN2S(=O)(=O)c2ccc(Cl)c(Cl)c2)CC1 (stereo not shown) [Example 119, 2-((1-(3,4-dichlorophenylsulfonyl)pyrrolidin-2-yl)methoxy)-N-((4-((dimethylamino)(3-fluorophenyl)methyl)cyclohexyl)methyl)acetamide] — lower, -6%
